Source: publication PMC6443933, “Antagonizing Retinoic Acid-Related-Orphan Receptor Gamma Activity Blocks the T Helper 17/Interleukin-17 Pathway Leading to Attenuated Pro-inflammatory Human Keratinocyte and Skin Responses” (Frontiers in Immunology, 2019)
One block for each molecule: values may come before it. * marks the point of attachment. Biotin = O=C1N[C@H]2[C@H](CS[C@H]2CCCCC(=O)*)N1; Ahx = NCCCCCC(=O)O

Tests used:
HaCaT keratinocytes = assay: IL-17-driven HaCaT keratinocyte responses (Th17 supernatants or spiked cytokines), qRT-PCR; assay type: cell-based, human
Experimental: (§1) The HaCaT keratinocyte cell line was purchased from AddexBio and was maintained in RPMI 1640 medium supplemented with Glutamax, Penicillin/Streptomycin (all from Gibco) and 10% FCS (PAA). Normal primary human epidermal keratinocytes (NHEKs) were purchased from Lonza and PromoCell, respectively. Cells were cultured in Keratinocyte basal growth medium (KBM; Lonza) containing KGM2 growth supplements including insulin, human epidermal growth factor, bovine pituitary extract, hydrocortisone, epinephrine, transferrin, and gentamicin/amphotericin B (Lonza). HaCaT cells were incubated in a 96-well-microtiter plate (2 × 10^4 cells/well) with Th17 cytokine-containing supernatants obtained from total CD4^+ T-cells that were polarized for 72 h in the presence of anti-CD3/CD28 antibodies and a Th17 polarization cocktail as described above. […] Cytokine concentrations in supernatants were determined from representative experiments and they contained approximately 150 pg/ml or 600 pg/ml of IL-17 in 10 μM or in 0.13 nM treated samples, respectively. The TNF-α concentration was similar in supernatants exposed to low or high Cpd A concentrations and was 4 ng/ml. To study the impact of the IL-17 cytokine, IL-17 in the supernatants and in the spike-in cocktails was neutralized by a 0.5 h pre-incubation with an IL-17-specific antibody [0.75 μg/ml; Secukinumab (Cosentyx®, Novartis)]. All cultures were incubated in triplicates and after a 24 h incubation period, HaCaT cells (6 × 10^4 cells/sample) and NHEKs (1 × 10^5 cells/sample) were harvested and further processed for qRT-PCR analysis.
Total RNA from human Th17 cells (6 × 10^5 cells), RORγt-RORE HUT78 cells (4 × 10^5 cells) and HaCaT cells (6 × 10^4 cells) was extracted using RNeasy kit including a DNAse I digestion step according to the manufacturer‘s protocol (Qiagen). Frozen skin biopsies (8 mm punches) were resuspended in RLT buffer (Qiagen) containing 1% β-mercaptoethanol and homogenized using a Precellys-Cryolys device (Bertin Instruments) according to the manufacturer's instructions. cDNAs were prepared with the High Capacity cDNA Reverse Transcription Kit (Applied Biosystems). Quantitative RT-PCR analysis was performed using a TaqManViiA7 (Applied Biosystems). All runs were accompanied by the internal control gene human β-glucoronidase (Gus) (431088E). The samples were run in triplicate or in hexaplicate and normalized to Gus using the ΔΔCt method to provide arbitrary units representing relative expression levels. The following Taqman probes were used for RT-PCR (Thermo Scientific): RORC (Hs01076112_m1), IL17A (Hs00936345_m1), IL22 (Hs01574154_m1), IL26 (Hs00218189_m1), IL23R (Hs00332759_m1), CCR6 (Hs00218189_m1), NFKBIZ (Hs00355476_m), DEFB4A (Hs00823638_m1), IL36G (Hs00219742_m1), and CCL20 (Hs00355476_m1).

NHEKs = assay: IL-17A/TNFα spike-in in primary keratinocytes (NHEKs), qRT-PCR; assay type: cell-based, human; conditions: 0.75 μg/ml; similar to TNFα stimulation
Experimental: as §1, with “The TNF-α concentration was similar in supernatants exposed to low or high Cpd A concentrations and was 4 ng/ml. To study the impact of the IL-17 cytokine, IL-17 in the supernatants and in the spike-in cocktails was neutralized by a 0.5 h pre-incubation with an IL-17-specific antibody [0.75 μg/ml; Secukinumab (Cosentyx®, Novartis)]. All cultures were incubated in triplicates and after a 24 h incubation period, HaCaT cells (6 × 10^4 cells/sample) and NHEKs (1 × 10^5 cells/sample) were harvested and further processed for qRT-PCR analysis.” left out
Total RNA from human Th17 cells (6 × 10^5 cells), RORγt-RORE HUT78 cells (4 × 10^5 cells) and HaCaT cells (6 × 10^4 cells) was extracted using RNeasy kit including a DNAse I digestion step according to the manufacturer‘s protocol (Qiagen). […] Quantitative RT-PCR analysis was performed using a TaqManViiA7 (Applied Biosystems). […]

[1] = test system: HUT78 T-cells stably expressing full-length eGFP-RORγt; assay: IL-17A / IL-2 production by RORγt transduced HUT78 T-cell line; assay type: cell-based, human; conditions: PMA plus anti-CD3, 48 h, ELISA
total human CD4+ T-cells = assay: Th17 polarization of total CD4+ T-cells, cytokine ELISA; assay type: cell-based; conditions: total CD4+ T-cells, Th17 polarization 72 h, ELISA; read-out: IC50, IL-17A secretion
Experimental: Total, naive and memory CD4^+ T cells were isolated from Peripheral blood mononuclear cells (PBMCs) from healthy volunteers by density gradient centrifugation using Ficoll Paque (GE). Total, naive or memory CD4^+ T-cells were prepared by immunomagnetic separation using the respective CD4^+ T-cell enrichment kits resulting in untouched highly purified subsets (EasySep™, Stem Cell). Purity was assessed by flow cytometry and was between 95 and 98% for the total CD4^+ T-cells. The purity of naive (CD45RA^+CD45RO^−) and memory (CD45RA^−CD45RO^+) CD4^+T-cells ranged between 95 and 98%, respectively. For T-cell stimulation experiments, cells were treated as previously published ([44]). Briefly, T-cells were stimulated with plate-bound monoclonal antibodies against CD3 (1 μg/ml, clone OKT-3, BioXcell) and CD28 (1 μg/ml, clone CD28.2, BioLegend). For Th17 polarization assays, IL-6 (20 ng/ml), TGF-β1 (5 ng/ml), IL-1β (10 ng/ml), and IL-23 (10 ng/ml) were added. For Th1 polarization assays, IL-12 (10 ng/ml) and anti-IL-4 antibody (5 μg/ml), for Th2 polarizations, IL-4 (10 ng/ml) and anti-IFN-γ antibody (5 μg/ml) were added. For Th0 polarization assays, cells were only stimulated with CD3 and CD28 antibodies. Supernatants were collected after 3 or 7 days of incubation for total or naive/memory CD4^+ T-cell polarizations, respectively. Cytokine concentrations were quantified by ELISA according to the manufacturer's instructions (eBioscience or BioLegend).

[2] = test system: STAT3 phosphorylation in Ba/F3 cells stably expressing the human IL-21 receptor; assay: IL-21-induced phospho-STAT3 by flow cytometry; assay type: cell-based; conditions: 1 μM, 1 h pre-incubation
Experimental: To assess whether Cpd A affected STAT3 activity we induced STAT3 phosphorylation in Ba/F3 cells stably expressing the human IL-21 receptor (kindly provided by Dr. Max Warncke, Novartis). Cells were pre-incubated for 1 h with 10 μM of Cpd A or with 1 μM of the pan-JAK inhibitor CP690550. To induce STAT3 activity, the cells were stimulated for 1.5 h with recombinant human IL-21 (3 nM), followed by two washing steps using buffer containing PBS/0.5% BSA. The cells were fixed with 2% paraformaldehyde for 15 min at room temperature, washed and resuspended in ice-cold 90% methanol solution and stored overnight at −20°C. The samples were washed and stained for 1 h with an Alexa 647-labeled anti-phospho (pY705)-STAT3 antibody (BD biosciences). After two washes the cells were analyzed using a LSR Fortessa (BD Bioscience) and analyzed using FlowJo software (Tree Star).

[3] = target: T1, human RORγt ligand binding domain (264-518), His6-tagged (human, UniProt P51449-1 264-518); assay: FRET or BRET; TR-FRET in solution: 6 nM His6-tagged RORγt-LBD, 90 nM biotinylated RIP140 co-activator peptide, 0.45 nM Cy5-labeled streptavidin, 1.5 nM Europium-labeled anti-His6 antibody; 1 h incubation; emissions at 615 and 665 nm; displacement by the small molecules Cpd A or SR2211; conditions: both partners purified
T1 construct: also called RORγt-LBD; His6-tagged RORγt-LBD; source: produced at Novartis
T1 sequence (looked up): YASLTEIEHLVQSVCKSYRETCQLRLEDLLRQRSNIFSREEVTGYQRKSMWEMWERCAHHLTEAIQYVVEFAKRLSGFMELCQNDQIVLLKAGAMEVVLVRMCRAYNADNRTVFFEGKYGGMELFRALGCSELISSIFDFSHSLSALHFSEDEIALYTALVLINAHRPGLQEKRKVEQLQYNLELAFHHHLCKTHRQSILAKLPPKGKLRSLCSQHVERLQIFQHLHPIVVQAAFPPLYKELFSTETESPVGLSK

Molecule: Secukinumab: neutralizing IL-17-selective antibody (Cosentyx, Novartis)
IL36G expression in HaCaT after IL-17 neutralization in Th17 supernatants (HaCaT keratinocytes; 0.75 μg/ml): moderate inhibition
IL-17A/TNFα-mediated gene expression in HaCaT (spike-in) (HaCaT keratinocytes; 0.75 μg/ml pre-incubation of cytokines, similar to TNFα-induced levels): significantly impaired
IL-17 activated transcripts in HaCaT after IL-17 neutralization in Th17 supernatants (HaCaT keratinocytes; 0.75 μg/ml, to levels seen with Th17 cytokines only): further downregulation
NFKBIZ, DEFB4A, CCL20, IL36G gene expression in NHEKs (spike-in) (NHEKs): reduced gene expression

Molecule: OC(c1ccc(-c2ccc(CN3CCN(Cc4ccncc4)CC3)cc2)c(F)c1)(C(F)(F)F)C(F)(F)F [SR2211, reference compound]
IC50 [1]: 257 ± 181 nM
IC50 (total human CD4+ T-cells): 1480 ± 739 nM

Molecule: C[C@@H]1CCN(C(=O)CC#N)C[C@@H]1N(C)c1ncnc2[nH]ccc12 [CP690550, reference compound]
IL-21-induced STAT3 activity (pY705-STAT3) [2]: blocked

binding result [3]: binds
B1: biotinylated RIP140 derived co-activator peptide (peptide)
peptide: {Biotin-Ahx}-NSHQKVTLLQLLLGHKNEEN-NH2
SMILES: CC(C)C[C@H](NC(=O)[C@H](CC(C)C)NC(=O)[C@H](CC(C)C)NC(=O)[C@H](CCC(N)=O)NC(=O)[C@H](CC(C)C)NC(=O)[C@H](CC(C)C)NC(=O)[C@@H](NC(=O)[C@@H](NC(=O)[C@H](CCCCN)NC(=O)[C@H](CCC(N)=O)NC(=O)[C@H](Cc1c[nH]cn1)NC(=O)[C@H](CO)NC(=O)[C@H](CC(N)=O)NC(=O)CCCCCNC(=O)CCCC[C@@H]1SC[C@@H]2NC(=O)N[C@@H]21)C(C)C)[C@@H](C)O)C(=O)NCC(=O)N[C@@H](Cc1c[nH]cn1)C(=O)N[C@@H](CCCCN)C(=O)N[C@@H](CC(N)=O)C(=O)N[C@@H](CCC(=O)O)C(=O)N[C@@H](CCC(=O)O)C(=O)N[C@@H](CC(N)=O)C(N)=O
notes: also called RIP140 peptide; source: bought: Thermo Scientific
